Experiments:
[1] = Stopped-flow kinetic analysis of superoxide dismutation; assay type: biochemical; parameters: kcat pH 8.1 / kcat pH 7.4: unit not given here
Excerpt: Stopped-flow kinetic analysis is an accurate and direct method for quantitatively monitoring the decay rates of superoxide in water.
For the attainment of consistent and accurate measurements all reagents were biologically clean and metal-free. To achieve this, all buffers (Calbiochem) were biological grade, metal-free buffers and were handled with utensils which had been washed first with 0.1N HCl, followed by purified water, followed by a rinse in a 10^−4 M EDTA bath at pH 8, followed by a rinse with purified water and dried at 65° C. for several hours. Dry DMSO solutions of potassium superoxide (Aldrich) were prepared under a dry, inert atmosphere of argon in a Vacuum Atmospheres dry glovebox using dried glassware. The DMSO solutions were prepared immediately before every stopped-flow experiment. A mortar and pestle were used to grind the yellow solid potassium superoxide (~100 mg). The powder was then ground with a few drops of DMSO and the slurry transferred to a flask containing an additional 25 ml of DMSO. The resultant slurry was stirred for ½ h and then filtered. This procedure gave reproducibly ~2 mM concentrations of superoxide in DMSO. These solutions were transferred to a glovebag under nitrogen in sealed vials prior to loading the syringe under nitrogen. It should be noted that the DMSO/superoxide solutions are extremely sensitive to water, heat, air, and extraneous metals. A fresh, pure solution has a very slight yellowish tint.
Water for buffer solutions was delivered from an in-house deionized water system to a Barnstead Nanopure Ultrapure Series 550 water system and then double distilled, first from alkaline potassium permanganate and then from a dilute EDTA solution. For example, a solution containing 1.0 g of potassium permanganate, 2 liters of water and additional sodium hydroxide necessary to bring the pH to 9.0 were added to a 2-liter flask fitted with a solvent distillation head. This distillation will oxidize any trace of organic compounds in the water. The final distillation was carried out under nitrogen in a 2.5-liter flask containing 1500 ml of water from the first still and 1.0×10^−6 M EDTA. This step will remove remaining trace metals from the ultrapure water. To prevent EDTA mist from volatilizing over the reflux arm to the still head, the 40-cm vertical arm was packed with glass beads and wrapped with insulation. This system produces deoxygenated water that can be measured to have a conductivity of less than 2.0 nanomhos/cm^2.
The stopped-flow spectrometer system was designed and manufactured by Kinetic Instruments Inc. (Ann Arbor, Mich.) and was interfaced to a MAC IICX personal computer. The software for the stopped-flow analysis was provided by Kinetics Instrument Inc. and was written in QuickBasic with MacAdios drivers. Typical injector volumes (0.10 ml of buffer and 0.006 ml of DMSO) were calibrated so that a large excess of water over the DMSO solution were mixed together. The actual ratio was approximately 19/1 so that the initial concentration of superoxide in the aqueous solution was in the range 60-120 μM. […]

[2] = polypropylene admixed 2% by weight, melted at 250° C., extracted with pure water
Description: 0.105 g of Compound 38 was added to 4.9 g of cryoground polypropylene. The mixture was melted at 250° C. and extruded into a strand and a fiber. In this manner, a polypropylene modified with a non-proteinaceous catalyst, 2% by weight, was made. The product strand was cryoground and extracted with pure water.

Row | Compound | kcat pH 8.1 [1] | kcat pH 7.4 [1] | activity of compound extracted from the strand ([1]; extracted with pure water from polypropylene strand, confirmed by stopped-flow kinetic analysis and HPLC-UV) | elution of the admixed compound from the cryoground polymer [2]
1 | C=CCC1C[N]2CC[N]3CC[N]4CC[N]5CC[N]1[Mn]4352([Cl])[Cl] (centres unmarked) [Compound 13] | 1.63 |  |  | 
2 | [Cl][Mn]1234([Cl])[N]5CC[N]1C1CCCCC1[N]2CC[N]3C1CCCCC1[N]4CC5 (centres unmarked) [Compound 17] | 4.09 | 12.60 |  | 
3 | N#C[S][Mn]1234([S]C#N)[N]5CC[N]1C1CCCCC1[N]2CC[N]3C1CCCC[C@H]1[N]4CC5 (some centres unmarked) [Compound 22] | 5.03 | 11.40 |  | 
4 | CC(C)(C)SC[C@H]1C[N]2[C@@H]3CCCC[C@H]3[N]3C[C@H](CSC(C)(C)C)[N]4CC[N]5CC[N]1[Mn]5423([Cl])[Cl] [Compound 21] | 1.29 | 2.93 |  | 
5 | C#CCC1C[N]2CC[N]3CC[N]4CC[N]5CC[N]1[Mn]4352([Cl])[Cl] (centres unmarked) [Compound 4] | 1.75 |  |  | 
6 | OC[C@@H]1C[N]2[C@@H](CO)C[N]3[C@@H](CO)C[N]4[C@H](CO)C[N]5[C@@H](CO)C[N]1[Mn]4523([Cl])[Cl] [Compound 10] | 2.68 | 2.68 |  | 
7 | OC[C@@H]1C[N]2[C@@H]3CCCC[C@H]3[N]3CC[N]4C5CCCCC5[N]5CC[N]1[Mn]5432([Cl])[Cl] (some centres unmarked) [Compound 26] | 3.47 | 10.12 |  | 
8 | NCCC[C@H]1C[N]2[C@H]3CCCC[C@H]3[N]3CC[N]4[C@H]5CCCC[C@H]5[N]5CC[N]1[Mn]5342([Cl])[Cl] [Compound 14] | 3.84 | 7.58 |  | 
9 | C[C@@H]1C[N]2[C@@H](CCCNC(=O)CCC(=O)O)C[N]3[C@@H]4CCCC[C@H]4[N]4CC[N]5[C@@H](C)C[N]1[Mn]2435([Cl])[Cl] [Compound 32] | 1.43 | 1.74 |  | 
10 | O=C(OC[C@H]1C[N]2[C@@H](COC(=O)c3ccccc3)C[N]3[C@@H](COC(=O)c4ccccc4)C[N]4[C@@H](COC(=O)c5ccccc5)C[N]5CC[N]1[Mn]5423([Cl])[Cl])c1ccccc1 [Compound 36] | 0.49 | 0.63 |  | 
11 | CC(C)C(=O)OC[C@@H]1C[N]2[C@@H]3CCCC[C@H]3[N]3CC[N]4C5CCCCC5[N]5CC[N]1[Mn]5432([Cl])[Cl] (some centres unmarked) [Compound 37] |  | 3.08 |  | 
12 | CC(=O)OC[C@@H]1C[N]2CC[N]3[C@@H](COC(C)=O)C[N]4[C@H](COC(C)=O)C[N]5[C@@H](COC(C)=O)C[N]1[Mn]2345([Cl])[Cl] [Compound 33] | 4.08 | 7.27 |  | 
13 | C[C@@H]1C[N]2[C@@H](C)C[N]3[C@@H]4CCCC[C@H]4[N]4C[C@H](C)[N]5CC[N]1[Mn]4352([Cl])[Cl] [Compound 19] | 4.08 | 8.48 |  | 
14 | [Cl-].[Cl-].[NH3+]CCCC[C@@H]1C[N]2[C@@H](CCCC[NH3+])C[N]3[C@@H]4CCCC[C@H]4[N]4CC[N]5CC[N]1[Mn]5243([Cl])[Cl] [Compound 12] | 5.39 | 10.20 |  | 
15 | [Cl-].[Cl][Fe]1234([Cl])[N]5CC[N]1C1CCCCC1[N]2CC[N]3C1CCCCC1[N]4CC5 (centres unmarked) [Compound 20] | 0.93 | 3.29 |  | 
16 | C[C@H]1C[N]2[C@@H](CCCO)C[N]3[C@@H]4CCCC[C@H]4[N]4C[C@H](CCCO)[N]5CC[N]1[Mn]5243([Cl])[Cl] [Compound 27] | 2.50 | 4.83 |  | 
17 | COC(=O)C1=C(C(=O)OC)C2OC1C=C2COC[C@H]1C[N]2[C@H](C)C[N]3[C@@H](C)C[N]4CC[N]5[C@H](C)C[N]1[Mn]4523([Cl])[Cl] (some centres unmarked) [Compound 25] | 2.34 | 4.04 |  | 
18 | [Cl-].[Cl-].[Mn+2].c1cc2nc(c1)CN[C@@H]1CCCC[C@H]1NCCN[C@@H]1CCCC[C@H]1NC2 [Compound 38, Manganese (II) dichloro{(4R,9R,14R,19R)-3,10,13,20,26-pentaazatetracyclo [20.3.1.04,9.014,19]hexacosa-1(26),22(23),24-triene}] | 1.19 | 1.64 | Active | ~10%

Row | Compound | kcat pH 8.1 [1] | kcat pH 7.4 [1] | activity of compound extracted from the strand ([1]; extracted with pure water from polypropylene strand, confirmed by stopped-flow kinetic analysis and HPLC-UV) | elution of the admixed compound from the cryoground polymer [2]
19 | FC(F)(F)CC1C[N]2CC[N]3CC[N]4CC[N]5CC[N]1[Mn]4352([Cl])[Cl] (centres unmarked) [Compound 9] | 1.68 | 2.77 |  | 
20 | CNCCCC[C@@H]1C[N]2CC[N]3CC[N]4CC[N]5[C@@H](CCCCNC)C[N]1[Mn]3425([Cl])[Cl] [Compound 8] | 5.90 | 5.95 |  | 
21 | C[C@H](CCCNCCC[C@H]1C[N]2[C@@H]3CCCC[C@H]3[N]3CC[N]4CC[N]5CC[N]1[Mn]5432([Cl])[Cl])[C@H]1CCC2[C@@H]3CC[C@@H]4C[C@H](O)CC[C@]4(C)C3CC[C@@]21C (some centres unmarked) [Compound 15] | 0.77 | 2.41 |  | 
22 | [Cl][Mn]1234([Cl])[N]5CC[N]1CC[N]2CC(Cc1ccccc1)[N]3CC[N]4CC5 (centres unmarked) [Compound 2] | 2.57 | 7.21 |  | 
23 | C[C@@H]1C[N]2[C@@H](C)C[N]3[C@@H](C)C[N]4[C@H](C)C[N]5[C@@H](C)C[N]1[Mn]4523([Cl])[Cl] [Compound 5] | 3.90 | 3.82 |  | 
24 | C[C@@H]1C[N]2[C@@H](C)C[N]3CC[N]4C[C@H](C)[N]5[C@@H](COc6ccco6)C[N]1[Mn]3425([Cl])[Cl] [Compound 24] | 2.55 | 2.55 |  | 
25 | [Cl][Mn]1234([Cl])[N]5CC[N]1CC[N]2CC[N]3CC[N]4CC5 [Compound 1] | 2.24 | 4.13 |  | 
26 | Oc1ccccc1CC1C[N]2CC[N]3CC[N]4CC[N]5CC[N]1[Mn]4352([Cl])[Cl] (centres unmarked) [Compound 6] | 3.83 | 6.99 |  | 
27 | [Cl][Mn]1234([Cl])[N]5CC[N]1CC[N]2[C@@H](Cc1cnc[nH]1)C[N]3[C@H](Cc1cnc[nH]1)C[N]4CC5 [Compound 7] | 1.58 | 2.00 |  | 
28 | Manganese(II) dichloro(4R,9R,11R,14R,19R)-3,10,13,20,26-pentaaza-(2R,21R)-dimethyltetracyclo[20.3.1.0^4,9, 0^14,19]hexacose-1(25),22(26),23-triene [Compound 40] | 11.00 | 90.00 |  | 
29 | OC[C@@H]1C[N]2CC[N]3[C@@H](CO)C[N]4[C@H](CO)C[N]5[C@@H](CO)C[N]1[Mn]2345([Cl])[Cl] [Compound 23] | 3.47 | 6.61 |  | 
30 | C[C@@H]1C[N]2[C@@H](CCCN)C[N]3[C@@H]4CCCC[C@H]4[N]4CC[N]5[C@@H](C)C[N]1[Mn]2435([Cl])[Cl] [Compound 31] | 2.91 | 2.97 |  | 
31 | CCC(=O)OC[C@H]1C[N]2[C@@H]3CCCC[C@H]3[N]3CC[N]4C5CCCCC5[N]5CC[N]1[Mn]5432([Cl])[Cl] (some centres unmarked) [Compound 39] | 2.32 | 3.89 |  | 
32 | NCC[C@H]1C[N]2[C@@H](CCN)C[N]3[C@@H]4CCCC[C@H]4[N]4CC[N]5CC[N]1[Mn]5243([Cl])[Cl] [Compound 16] | 1.97 | 2.48 |  | 
33 | C[C@H]1C[N]2[C@@H](C)C[N]3[C@@H](CCCNC(=O)CC(CC(=O)O)NC(=O)CNC(=O)c4cccc(NC(=N)N)c4)C[N]4[C@H]5CCCC[C@H]5[N]5CC[N]1[Mn]3524([Cl])[Cl] (some centres unmarked) [Compound 35] | 2.87 | 4.38 |  | 
34 | CCC(=O)OCC1C[N]2CC[N]3[C@@H](COC(=O)CC)C[N]4[C@@H](COC(=O)CC)C[N]5[C@@H](COC(=O)CC)C[N]1[Mn]2354([Cl])[Cl] (some centres unmarked) [Compound 34] | 2.78 | 2.70 |  | 
35 | NCCC[C@H]1C[N]2[C@@H]3CCCC[C@H]3[N]3CC[N]4CC[N]5CC[N]1[Mn]5432([Cl])[Cl] [Compound 11] | 2.85 | 4.79 |  | 
36 | C[C@@H]1C[N]2[C@H]3CCCC[C@H]3[N]3CC[N]4C5CCCCC5[N]5CC[N]1[Mn]5432([Cl])[Cl] (some centres unmarked) [Compound 18] | 4.00 | 15.00 |  | 

Reference: US7445641B1, “Biomaterials modified with superoxide dismutase mimics” (priority 1999, dated 2008)
